Source: patent US9340590B2 (priority 2011, dated 2016)
pIC50: −log10 of the molar value. Read-outs that look alike come from different tables or passages of the source. Positions of bridges follow the written chain, without caps; N, C: chain ends. Non-standard residues stand in square brackets, D forms with d. Residues, ends and D or L forms follow the SMILES beside them. 1Nal = N[C@@H](Cc1cccc2ccccc12)C(=O)O

Tests used:
Experiment in all cases: cell-based
[1] = target: hNav1.7 (Homo sapiens, UniProt Q15858); format: cell-based; conditions: IonWorks Quattro, read-out: IWQ Use Nav1.7
[2] = target: hNav1.5 (Homo sapiens, UniProt Q14524); conditions: IonWorks Quattro, read-out: IWQ Use Nav1.5
hNav1.5, sequence (Q14524 whole entry, looked up): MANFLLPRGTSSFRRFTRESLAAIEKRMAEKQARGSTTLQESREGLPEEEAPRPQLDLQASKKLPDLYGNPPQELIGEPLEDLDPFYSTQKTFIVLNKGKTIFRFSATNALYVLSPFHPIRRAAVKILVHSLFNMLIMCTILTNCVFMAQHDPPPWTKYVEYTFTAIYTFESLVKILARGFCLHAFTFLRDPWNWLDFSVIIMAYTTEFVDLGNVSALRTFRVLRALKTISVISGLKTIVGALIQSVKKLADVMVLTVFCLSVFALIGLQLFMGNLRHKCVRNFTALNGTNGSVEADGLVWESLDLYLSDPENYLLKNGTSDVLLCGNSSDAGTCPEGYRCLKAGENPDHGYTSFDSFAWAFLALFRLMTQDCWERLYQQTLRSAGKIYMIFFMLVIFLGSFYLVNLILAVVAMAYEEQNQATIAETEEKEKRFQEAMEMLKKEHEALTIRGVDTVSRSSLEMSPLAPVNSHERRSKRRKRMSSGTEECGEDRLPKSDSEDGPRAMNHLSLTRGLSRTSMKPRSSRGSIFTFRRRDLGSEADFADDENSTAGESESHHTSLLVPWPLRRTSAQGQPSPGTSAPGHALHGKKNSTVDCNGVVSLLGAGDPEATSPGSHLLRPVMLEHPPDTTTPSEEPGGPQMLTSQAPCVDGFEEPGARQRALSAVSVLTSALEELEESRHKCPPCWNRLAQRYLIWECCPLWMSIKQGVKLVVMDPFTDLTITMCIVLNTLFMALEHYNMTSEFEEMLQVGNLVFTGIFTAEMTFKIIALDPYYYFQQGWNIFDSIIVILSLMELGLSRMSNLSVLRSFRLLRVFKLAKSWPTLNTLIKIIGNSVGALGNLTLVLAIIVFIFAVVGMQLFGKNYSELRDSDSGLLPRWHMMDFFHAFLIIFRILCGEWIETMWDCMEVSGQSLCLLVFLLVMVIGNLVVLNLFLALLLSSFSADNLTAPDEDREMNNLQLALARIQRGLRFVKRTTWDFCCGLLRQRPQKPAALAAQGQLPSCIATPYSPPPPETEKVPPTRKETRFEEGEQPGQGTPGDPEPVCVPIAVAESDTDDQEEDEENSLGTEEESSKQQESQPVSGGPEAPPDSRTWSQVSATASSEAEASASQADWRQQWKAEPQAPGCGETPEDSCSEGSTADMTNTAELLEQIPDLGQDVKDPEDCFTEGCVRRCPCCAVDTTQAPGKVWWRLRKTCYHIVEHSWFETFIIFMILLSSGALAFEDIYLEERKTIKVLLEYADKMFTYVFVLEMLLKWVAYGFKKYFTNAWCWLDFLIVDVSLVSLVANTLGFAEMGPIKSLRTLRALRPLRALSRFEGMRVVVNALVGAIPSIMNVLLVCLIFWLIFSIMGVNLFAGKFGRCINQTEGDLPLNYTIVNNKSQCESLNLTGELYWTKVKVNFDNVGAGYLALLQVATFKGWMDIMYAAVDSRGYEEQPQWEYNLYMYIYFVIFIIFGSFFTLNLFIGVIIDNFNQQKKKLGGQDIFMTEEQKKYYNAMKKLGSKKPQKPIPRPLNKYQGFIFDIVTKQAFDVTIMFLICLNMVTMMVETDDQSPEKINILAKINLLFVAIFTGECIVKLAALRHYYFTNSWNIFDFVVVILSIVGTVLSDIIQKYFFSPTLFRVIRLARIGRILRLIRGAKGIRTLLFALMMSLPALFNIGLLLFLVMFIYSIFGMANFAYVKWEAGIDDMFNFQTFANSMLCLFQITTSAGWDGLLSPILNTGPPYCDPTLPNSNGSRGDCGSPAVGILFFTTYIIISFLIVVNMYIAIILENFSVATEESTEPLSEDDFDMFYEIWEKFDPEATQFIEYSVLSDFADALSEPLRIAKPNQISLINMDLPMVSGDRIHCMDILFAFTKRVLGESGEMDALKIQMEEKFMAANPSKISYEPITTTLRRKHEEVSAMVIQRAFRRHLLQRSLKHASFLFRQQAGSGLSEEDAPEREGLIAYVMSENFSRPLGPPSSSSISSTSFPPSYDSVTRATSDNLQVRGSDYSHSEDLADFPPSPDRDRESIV

[3] = target: hNav1.3 (Homo sapiens, UniProt Q9NY46); conditions: IonWorks Quattro, read-out: IWQ Use Nav1.3
hNav1.3, sequence (Q9NY46 whole entry, looked up): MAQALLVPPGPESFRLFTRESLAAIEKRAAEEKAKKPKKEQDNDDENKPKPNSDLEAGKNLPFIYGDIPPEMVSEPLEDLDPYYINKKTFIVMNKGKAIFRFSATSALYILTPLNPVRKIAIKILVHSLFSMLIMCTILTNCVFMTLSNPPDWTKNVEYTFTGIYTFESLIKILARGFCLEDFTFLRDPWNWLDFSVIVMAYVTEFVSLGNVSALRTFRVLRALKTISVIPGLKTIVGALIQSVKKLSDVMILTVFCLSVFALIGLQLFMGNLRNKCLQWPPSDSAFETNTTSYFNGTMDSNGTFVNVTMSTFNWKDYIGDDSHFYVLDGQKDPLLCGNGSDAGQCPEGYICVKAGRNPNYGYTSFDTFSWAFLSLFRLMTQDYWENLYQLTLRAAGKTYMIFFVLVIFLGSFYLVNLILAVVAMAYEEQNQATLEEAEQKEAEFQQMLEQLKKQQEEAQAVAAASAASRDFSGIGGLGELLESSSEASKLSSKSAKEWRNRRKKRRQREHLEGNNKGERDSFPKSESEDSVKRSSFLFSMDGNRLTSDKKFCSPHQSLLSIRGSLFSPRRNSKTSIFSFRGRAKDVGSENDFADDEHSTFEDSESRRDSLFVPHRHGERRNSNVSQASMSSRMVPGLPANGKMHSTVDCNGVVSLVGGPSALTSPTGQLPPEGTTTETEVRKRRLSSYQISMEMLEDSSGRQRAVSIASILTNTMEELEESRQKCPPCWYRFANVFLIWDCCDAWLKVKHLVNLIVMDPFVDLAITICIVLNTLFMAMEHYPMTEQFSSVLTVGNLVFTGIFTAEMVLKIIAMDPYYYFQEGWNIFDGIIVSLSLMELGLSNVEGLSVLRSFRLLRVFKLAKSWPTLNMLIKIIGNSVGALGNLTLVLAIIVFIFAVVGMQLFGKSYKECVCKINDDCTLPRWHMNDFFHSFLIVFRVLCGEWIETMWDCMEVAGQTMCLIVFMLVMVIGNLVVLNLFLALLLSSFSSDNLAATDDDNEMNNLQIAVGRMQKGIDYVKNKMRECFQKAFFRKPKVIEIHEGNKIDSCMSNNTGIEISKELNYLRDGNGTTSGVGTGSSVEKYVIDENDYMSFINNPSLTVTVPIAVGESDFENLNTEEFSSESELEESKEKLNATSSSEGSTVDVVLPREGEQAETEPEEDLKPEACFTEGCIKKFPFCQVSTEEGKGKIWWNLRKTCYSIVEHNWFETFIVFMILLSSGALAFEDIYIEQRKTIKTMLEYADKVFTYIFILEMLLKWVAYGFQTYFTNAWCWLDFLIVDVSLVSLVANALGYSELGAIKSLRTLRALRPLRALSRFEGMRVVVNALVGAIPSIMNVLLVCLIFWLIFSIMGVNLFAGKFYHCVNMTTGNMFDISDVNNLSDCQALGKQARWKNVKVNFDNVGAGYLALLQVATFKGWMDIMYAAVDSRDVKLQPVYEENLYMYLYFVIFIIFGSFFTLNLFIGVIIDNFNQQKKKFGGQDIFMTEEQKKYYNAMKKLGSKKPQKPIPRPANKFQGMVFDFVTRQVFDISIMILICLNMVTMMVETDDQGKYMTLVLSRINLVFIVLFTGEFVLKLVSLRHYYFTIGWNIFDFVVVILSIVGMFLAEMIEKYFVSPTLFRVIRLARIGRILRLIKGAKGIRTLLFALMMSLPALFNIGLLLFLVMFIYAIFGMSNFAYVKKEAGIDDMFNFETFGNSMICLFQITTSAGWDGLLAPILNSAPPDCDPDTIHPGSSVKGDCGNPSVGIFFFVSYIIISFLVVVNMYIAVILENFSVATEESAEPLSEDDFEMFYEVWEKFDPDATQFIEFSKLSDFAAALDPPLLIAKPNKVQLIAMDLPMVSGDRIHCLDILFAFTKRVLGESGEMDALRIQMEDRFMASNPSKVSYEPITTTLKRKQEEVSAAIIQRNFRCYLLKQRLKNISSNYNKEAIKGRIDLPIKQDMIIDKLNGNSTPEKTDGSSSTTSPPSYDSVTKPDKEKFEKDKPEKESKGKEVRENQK

SMILES	pIC50 ([1]; use-dependent block, hNav1.7)	pIC50 ([2]; use-dependent block, hNav1.5)	pIC50 ([3]; use-dependent block, hNav1.3)	pIC50 ([1]; Table 26, use, […])	pIC50 ([2]; Table 26, use, […])	pIC50 ([3]; Table 26, use, […])
CC[C@H](C)[C@@H]1NC(=O)[C@@H]2CSSC[C@@H]3NC(=O)[C@H](C(C)C)NC(=O)[C@H](CC(C)C)NC(=O)[C@H](CC(N)=O)NC(=O)[C@@H]4CCCN4C(=O)[C@H](CCCNC(=N)N)NC(=O)[C@H](CSSC[C@H](NC(=O)[C@@H](N)CC(=O)O)C(=O)N[C@@H](CC(C)C)C(=O)NCC(=O)N[C@@H](Cc4ccccc4)C(=O)N[C@@H](Cc4c[nH]c5ccccc45)C(=O)N[C@@H](CCCNC(=N)N)C(=O)N[C@@H](CCCCN)C(=O)N2)NC(=O)[C@H](CSSC[C@@H](C(=O)N[C@@H](CCCCN)C(=O)N[C@@H](Cc2ccc(O)cc2)C(=O)N[C@@H](Cc2cccc4ccccc24)C(=O)N[C@@H](Cc2ccccc2)C(N)=O)NC(=O)[C@H](Cc2c[nH]c4ccccc24)NC(=O)[C@H](CCCCN)NC(=O)[C@H](Cc2c[nH]cn2)NC(=O)[C@H]([C@@H](C)O)NC(=O)[C@H](CCCNC(=N)N)NC(=O)[C@H](CO)NC3=O)NC(=O)[C@H](CCCCN)NC(=O)[C@H](CC(=O)O)NC(=O)[C@H](CC(N)=O)NC(=O)[C@H](CC(=O)O)NC(=O)[C@@H]2CCCN2C1=O [compound 461] (H-DCLGFWRKCIPDNDKCCRPNLVCSRTHKWCKY[1Nal]F-NH2; disulfide 2-17, 9-23, 16-30)	7.00	< 5.30	7.30			
CC[C@H](C)[C@@H]1NC(=O)[C@@H]2CSSC[C@@H]3NC(=O)[C@H](C(C)C)NC(=O)[C@H](CC(C)C)NC(=O)[C@H](CC(N)=O)NC(=O)[C@@H]4CCCN4C(=O)[C@H](CCCNC(=N)N)NC(=O)[C@H](CSSC[C@H](NC(=O)[C@@H](N)CC(=O)O)C(=O)N[C@@H](CC(C)C)C(=O)NCC(=O)N[C@@H](Cc4ccccc4)C(=O)N[C@@H](CCSC)C(=O)N[C@@H](CCCNC(=N)N)C(=O)N[C@@H](CCCCN)C(=O)N2)NC(=O)[C@H](CSSC[C@@H](C(=O)N[C@@H](CCCCN)C(=O)N[C@@H](Cc2c[nH]c4ccccc24)C(=O)N[C@H](C(=O)N[C@@H](Cc2ccccc2)C(N)=O)C(C)C)NC(=O)[C@H](Cc2c[nH]c4ccccc24)NC(=O)[C@H](CCCCN)NC(=O)[C@H](Cc2c[nH]cn2)NC(=O)[C@H](CC(C)C)NC(=O)[C@H](CCCNC(=N)N)NC(=O)[C@H](CO)NC3=O)NC(=O)[C@H](CCCCN)NC(=O)[C@H](CC(=O)O)NC(=O)[C@H](CC(N)=O)NC(=O)[C@H](CC(=O)O)NC(=O)[C@@H]2CCCN2C1=O [compound 446] (H-DCLGFMRKCIPDNDKCCRPNLVCSRLHKWCKWVF-NH2; disulfide 2-17, 9-23, 16-30)	7.40	< 5.30	7.22			
CC[C@H](C)[C@@H]1NC(=O)[C@@H]2CSSC[C@@H]3NC(=O)[C@H](C(C)C)NC(=O)[C@H](CC(C)C)NC(=O)[C@H](CC(N)=O)NC(=O)[C@@H]4CCCN4C(=O)[C@H](CCCNC(=N)N)NC(=O)[C@H](CSSC[C@H](NC(=O)[C@@H](N)CC(=O)O)C(=O)N[C@@H](CC(C)C)C(=O)NCC(=O)N[C@@H](Cc4ccccc4)C(=O)N[C@@H](CCSC)C(=O)N[C@@H](CCCNC(=N)N)C(=O)N[C@@H](CCCCN)C(=O)N2)NC(=O)[C@H](CSSC[C@@H](C(=O)N[C@@H](CCCCN)C(=O)N[C@@H](Cc2ccc(O)cc2)C(=O)N[C@@H](CC(=O)O)C(=O)N[C@@H](Cc2ccccc2)C(N)=O)NC(=O)[C@H](Cc2c[nH]c4ccccc24)NC(=O)[C@H](CCCCN)NC(=O)[C@H](Cc2c[nH]cn2)NC(=O)[C@H]([C@@H](C)O)NC(=O)[C@H](CCCNC(=N)N)NC(=O)[C@H](CO)NC3=O)NC(=O)[C@H](CCCCN)NC(=O)[C@H](CC(=O)O)NC(=O)[C@H](CC(N)=O)NC(=O)[C@H](CC(=O)O)NC(=O)[C@@H]2CCCN2C1=O [compound 395] (H-DCLGFMRKCIPDNDKCCRPNLVCSRTHKWCKYDF-NH2; disulfide 2-17, 9-23, 16-30)				6.11	5.06	6.77
